In one data set the test system is PSMA + tumor. The following applies: 2 h p.i., clinically employed agents; ref not printed (Table S11); cited from earlier work.
The nature of data set [1]: pH-dependent speciation of ScF complexes by 1H and 45Sc NMR (HypNMR2008 fit). It counts as physicochemical. The following applies: Sc3+ complexes, determined by HypNMR2008. From the text: To establish optimal parameters for the formation of ScF ternary complexes, we determined the pH-dependent speciation of ScF complexes with H 3 mpatcn and H 2 mpatcn-am-Bz using ^1H and ^45Sc NMR spectroscopy in accordance with previous methods established for the formation of lanthanide-fluoride complexes (Supporting Information, Section S3). […] Above pH 10, the [Sc(L)-OH] species becomes most favorable, effectively outcompeting the F^– ligand at increasing concentration. Low pH conditions led to the presence of protonated species [Sc(mpatcn)-H]^+, which competes with inner sphere fluorination. […] For both ligands, no statistically significant differences for pH dependence were observed, with the % of [ScF(L)] species remaining constant between pH 3 and 8 (Table ).

Structures are written as SMILES.

Consider three compounds from PMC12751015, “Evaluation of Bifunctional, PSMA-Targeted Triazamacrocycle-Picolinates Compatible with the ^18F/^44Sc/^177Lu Isotope Triad” (Journal of Medicinal Chemistry, 2025).

With `O=C(O)CC[C@H](NC(=O)N[C@@H](CCCCNC(=O)c1ccc(F)nc1)C(=O)O)C(=O)O` [Pylarify], in the data set on PSMA + tumor, the “tumor to blood ratio” value is reported as 1220 ± 431.

In data set [1], `CN(Cc1ccccc1)C(=O)CN1CCN(CC(=O)O)CCN(Cc2cccc(C(=O)O)n2)CC1` [mpatcn-am-Bz] came in with a logßML of 23.2, a logßMLF of 27.8 and a logßMLOH of 13.7.

On to `O=C(O)CN1CCN(CC(=O)O)CCN(Cc2cccc(C(=O)O)n2)CC1` [mpatcn], for which, in data set [1], the logßML was found to be 23, the logßMLF is given as 27.7, the logßMLH is given as 24.9 and the logßMLOH was 14.2.
